Experimental data: publication PMC6372556, “The Neisseria gonorrhoeae Methionine Sulfoxide Reductase (MsrA/B) Is a Surface Exposed, Immunogenic, Vaccine Candidate” (Frontiers in Immunology, 2019)

Target: T1, MsrA/B
T1 construct: recombinant, msr gene of strain 1291 in pET15b (NdeI/XhoI primers), His-tagged, E. coli BL21 Star (DE3)pLysS, TALON purified; full protein 522 aa; amine-coupled to SPR chip
Assay: SPR, Biacore T200, single cycle kinetics, MsrA/B immobilized by amine coupling on CM5 chip
Format: binding, Neisseria gonorrhoeae
Conditions: free Met(O) 0.16-100 nM; no serum; substrate; sulfoxide epimer and D/L form not told
Excerpt: SPR, Biacore T200, single cycle kinetics, MsrA/B immobilized by amine coupling on CM5 chip on MsrA/B | MsrA/B bound to Met(O) with a high affinity, with a KD

With C[S+]([O-])CC[C@H](N)C(=O)O (stereo partly shown) [Met(O)] the Kd was 15.4 ± 3.7 nM.
